For 16 compounds, TGI and GI50 results are on record in PubChem BioAssay (NCI).

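Exposure lasted 48 hours, with cells grown in 96-well plates and compounds tested at five concentrations. Abbreviation: GI50, concentration required for 50% inhibition of growth. TGI denotes the concentration required for complete inhibition of growth.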

What all share (test): DTP human tumour cell line panel, 48 h
Assay [1] concerns CAKI-1 renal.
For assay [2], the system named is COLO 205 colon.
Assay [3] concerns HOP-62 NSCLC.
In assay [4] the test system is KM12 colon.
The test system of assay [5] is MOLT-4 leukemia.
In assay [6] the test system is SK-OV-3 ovarian.
For assay [7], the system named is UO-31 renal.
The test system of assay [8] is MCF7 breast.
In assay [9] the test system is T-47D breast.

With `COc1ccc(-c2cc(C(=O)Nc3cccc(C(F)(F)F)c3)[nH]c(=S)n2)cc1`, the TGI in assay [1], in assay [2], in assay [3], in assay [4], in [5] and in assay [6] was more than 100 µM in each case. The TGI in assay [7] was more than 100 µM.
As for `Cc1c(/C=C2\CC/C(=C\c3[nH]c(C(=O)OC(C)(C)C)c(C)c3C)C2=O)[nH]c(C(=O)OC(C)(C)C)c1C`, the TGI in assay [1], in [2], in [3], in [4], in [5] and in [6] was more than 100 µM each time. Moreover, the TGI in assay [7] was more than 100 µM.
With `C[C@]12CC[C@H](O)CC1=CC[C@@H]1[C@@H]2CC[C@]2(C)C(=O)/C(=C/c3cccc(OCCCn4ccnc4)c3)C[C@@H]12`, the GI50 was 38.4 µM in [1]; 20.3 µM in assay [2]; 20.4 µM in [3]; 34 µM in assay [4]; 23.1 µM in assay [8]; 17.4 µM in assay [6]. For the same compound, the results for the GI50 in assay [9] and in assay [7] were 12.4 µM and 16 µM, respectively. For the same compound, the TGI is more than 100 µM in [1]; 45.8 µM in [2]; 38.2 µM in [3]; more than 100 µM in assay [4]; 54.1 µM in assay [8]; 62.7 µM in assay [6]. Further, the TGI in assay [9] amounted to 31.3 µM; in assay [7], 35.1 µM.
On to `O=c1/c(=C/c2cccc3ccccc23)sc2nc3ccccc3n12`, for which the TGI in assay [1], in assay [2], in [3], in assay [4] and in assay [7] was more than 100 µM each time.
`COc1cc(OC)cc(N2CCC(c3c(N)nc(N)nc3Cl)CC2)c1`: the TGI in assay [1], in assay [2], in [3], in assay [4], in assay [5] and in assay [6] was more than 100 µM in each case. The same compound gave a TGI in [7] of more than 100 µM.
On to `COc1nc(OC)c2c(=O)oc(-c3ccccc3)cc2n1`, for which the TGI in assay [1], in assay [4], in [5], in [6] and in assay [7] was more than 100 µM in each case.
Regarding `CS(=O)(=O)C1S(=O)(=O)OCCOS1(=O)=O`, the TGI in assay [1], in assay [2], in [3], in [4], in assay [5] and in assay [6] was more than 100 µM each time. In assay [7], the TGI was more than 100 µM.
Consider `O=c1cc2n(c(=O)[nH]1)C1OC(C(O)C1O)[C@@H]2CCO` (stereo partly drawn), for which the TGI in assay [1], in [3], in assay [4], in assay [5], in assay [6] and in assay [7] was more than 100 µM in each case.
Turning to `COC(=O)c1cnc2nc(N3CCOCC3)[nH]n2c1=O`, the TGI in assay [1], in [2], in [3], in [4], in [5] and in assay [6] was more than 100 µM throughout. This compound also had a TGI in assay [7] of more than 100 µM.
Regarding `CCc1nc2c(O)ccc(O)c2nc1C`, the TGI was 33.2 µM in assay [1]; 7.26 µM in [2]; 32.3 µM in assay [3]; 30.8 µM in assay [4]; more than 39.5 µM in [5]; 34.2 µM in assay [6]. This compound displayed a TGI in assay [7] of 33.5 µM.
`CCOC(C)OCC#CCCBr` (stereo not drawn): the TGI in assay [1], in assay [2], in assay [3], in assay [4], in assay [5] and in [6] was more than 100 µM in each case. This compound yielded a TGI in assay [7] of more than 100 µM.
`CC(C)(C)c1nc2c(o1)C(=Nc1ccccc1)c1ccccc1C2=O`: the TGI in [1] is 64.9 µM; in assay [2], 63 µM; in [3], 31 µM; in assay [4], 50.3 µM; in [5], more than 100 µM; in assay [6], 63.4 µM. In addition, the TGI in assay [7] was determined as 24.3 µM.
In the case of `N#C/C(=C\c1ccc(CP(=O)(O)O)cc1)C(N)=O`, the TGI in assay [1], in assay [2], in [3], in [4], in [5] and in assay [6] was more than 100 µM each time. Besides, the TGI in assay [7] is more than 100 µM.
Consider `CC(=O)[CH-]C(=O)c1ccccc1.CC(=O)[CH-]C(=O)c1ccccc1.[Nd+3].[OH-].[OH3+]`, for which the GI50 in assay [1], in assay [2], in [3], in [4], in [5] and in assay [6] was more than 100 µM in each case. In assay [7], the GI50 was more than 100 µM. Also, the TGI in [1], in assay [2], in [3], in [4], in assay [5] and in assay [6] was more than 100 µM each time. The TGI in assay [7] was more than 100 µM.
As for `OCC(O)CC[CH2][Sn]([c]1ccccc1)([c]1ccccc1)[c]1ccccc1` (stereo not drawn), the GI50 is 8.12 µM in assay [1]; 19.5 µM in assay [2]; 18.4 µM in [3]; 13.9 µM in assay [4]; 19.7 µM in assay [6]; 14.8 µM in assay [7]. In addition, the TGI in assay [1] is 21.5 µM; in [2], 35.3 µM; in assay [3], 39.1 µM; in assay [4] it was 29.8 µM; in assay [6], 34.1 µM; in assay [7], 28.4 µM.
For the compound `CN(C)CCNC(=O)c1ccc2ccc3cccnc3c2n1`, the TGI in assay [1] is more than 85.5 µM; in assay [2], 23.9 µM; in [3] it was 63.1 µM; in assay [4], 95.6 µM; in assay [5], 32.3 µM; in [6] it was more than 100 µM. The compound also registered a TGI in [7] of 47.9 µM.

By TGI is commonly meant the concentration giving total growth inhibition. Low values mean more potent growth arrest, high ones less potent growth arrest. Usually GI50 stands for the concentration giving 50% growth inhibition.
